This note sets out measurements from ChEMBL document CHEMBL4340517, “Synthesis and biological evaluation of 7-substituted cycloberberine derivatives as potent antibacterial agents against MRSA” (2019).

Test [1] concerns Staphylococcus aureus. In words: Bactericidal activity against methicillin-resistant Staphylococcus aureus 18-4 assessed as reduction in bacterial growth at 2 to 32 times MIC measured within 8 hrs by time kill assay relative to control. It counts as functional.
The test system of test [2] is Enterococcus faecalis. The test can be described thus: Antibacterial activity against VAN-sensitive Enterococcus faecalis ATCC 29212 after 18 hrs by agar dilution method. It counts as functional. The following applies: ATCC 29212, 18 h. (In general: In agar dilution, organisms are placed on agar that contains the substance at set levels.)
In test [3] the test system is Staphylococcus aureus. The test can be described thus: Antibacterial activity against VAN-intermediate Staphylococcus aureus ATCC 700698 after 18 hrs by agar dilution method. It is filed as functional. The conditions noted are these: ATCC 700698, 18 h.
Test [4] has as its target Topoisomerase IV (Staphylococcus aureus) (UniProt P0C1U9+P0C1S7). The test can be described thus: Inhibition of methicillin-resistant Staphylococcus aureus topoisomerase-4 assessed as reduction in DNA decatenation at 2.5 to 5 ug/ml using super coiled pBR322 plasmid DNA as substrate measured after 30 mins by agarose gel electrophoresis method relative to control. It counts as protein-complex assay.

Test [5] deals with Staphylococcus aureus. In words: Bactericidal activity against methicillin-resistant Staphylococcus aureus 18-4 assessed as reduction in bacterial growth at 8 times MIC measured within 2 hrs by time kill assay relative to control. It is filed as functional.
Test [6] deals with Staphylococcus aureus. The test can be described thus: Antibacterial activity against methicillin-resistant Staphylococcus aureus 18-4 after 18 hrs by agar dilution method. The following applies: 18-4, 18 h. It counts as functional.
In test [7] the test system is Staphylococcus aureus. In words: Antibacterial activity against methicillin-resistant Staphylococcus aureus ATCC 33591 after 18 hrs by agar dilution method. It counts as functional. The following applies: ATCC 33591, 18 h.
The subject of test [8] is Staphylococcus aureus. In words: Bactericidal activity against methicillin-resistant Staphylococcus aureus 18-4 assessed as reduction in bacterial growth at 2 times MIC measured after 24 hrs by time kill assay relative to control. It counts as functional.
The subject of test [9] is Staphylococcus aureus. The test can be described thus: Antibacterial activity against methicillin-sensitive Staphylococcus aureus ATCC 29213 after 18 hrs by agar dilution method. It counts as functional. The conditions noted are these: ATCC 29213, 18 h.
Test [10] relates to Staphylococcus epidermidis. In words: Antibacterial activity against methicillin-resistant Staphylococcus epidermidis 13-3 after 18 hrs by agar dilution method. It is filed as functional. The conditions noted are these: 13-3, 18 h.
Test [11] has as its system Enterococcus faecalis. In words: Antibacterial activity against VAN-resistant Enterococcus faecalis ATCC 51299 after 18 hrs by agar dilution method. The following applies: ATCC 51299, 18 h. It counts as functional.
A further test has as its system Enterococcus faecium. In words: Antibacterial activity against VAN-resistant Enterococcus faecium ATCC 700221 after 18 hrs by agar dilution method. It is filed as functional. The following applies: ATCC 700221, 18 h.

Active and inactive are the calls of the source. The rule behind the calls is not given here.

By MIC is commonly meant the lowest concentration that inhibits growth of the organism. With `COc1ccc2c(c1OC)c(-c1ccccc1)[n+]1c3c2ccc2c4c(cc(c23)CC1)OCO4.[Br-]`, the “growth inhibition (GI)” value with Staphylococcus aureus [1] is more than 90%; in the test on Staphylococcus aureus [5], 100%; in the test on Staphylococcus aureus [8], 99.99%. Further, the MIC against Enterococcus faecalis [2] is 4 µg/mL; with Staphylococcus aureus [3], 8 µg/mL; against Staphylococcus aureus [6], 1 µg/mL; in the test on Staphylococcus aureus [7], 4 µg/mL; in the test on Staphylococcus aureus [9], 1 µg/mL; in [10], 1 µg/mL. Moreover, the MIC with Enterococcus faecalis [11] and against Enterococcus faecium was 4 µg/mL each time. In test [4], the inhibition result was “Active”.
